According to patent US20190365744A1, “IMPROVED MULTI TYROSINE KINASE INHIBITOR THERAPY” (FRAUNHOFER-GESELLSCHAFT ZUR FORDERUNG DER ANGEWANDTEN …, priority 2017, published 2019):

Test system: CXCR4
Assay: CXCR4 PET/CT with tracer 68Ga-Pentixafor in patients with idiopathic pulmonary fibrosis, prior to and under therapy
Assay type: in vivo, human
Conditions: for CXCR4 signal (PET/CT): patients with idiopathic pulmonary fibrosis, after onset of therapy vs prior to therapy, 68Ga-Pentixafor tracer
Description: Patients were diagnosed with clinical idiopathic pulmonary fibrosis according to diagnostic criteria of the American Thoracic Society/European Respiratory Society.
Pentixafor synthesis. Material for synthesis of ^68Ga-pentixafor (CPCR4.2) was provided by Scintomics (Fürstenfeldbruck, Germany) Synthesis was performed as previously described (18, 19), using a ^68Ge/^68Ga-generator (Eckert&Ziegler, Braunschweig, Germany) connected to a Scintomics GRP synthesis module.
Clinical Imaging. All studies were obtained on a dedicated PET/CT system (Biograph mCT 128 Flow; Siemens, Knoxville, USA), equipped with an extended field-of-view LSO PET component, a 128-slice spiral CT component, and a magnetically driven table optimized for continuous scanning The patients received an intravenous injection of 110 (IQR, 80-120) MBq of ^68Ga-pentixafor. Imaging started with a low-dose non-enhanced helical CT (120 kV, mA modulated, pitch 1.2, reconstructed axial slice thickness 5.0 mm) performed for attenuation correction of PET acquisitions. PET images of the whole body were then acquired using continuous bed motion (CBM) at a speed of 2.0 mm/s for head and neck and 0.5 mm/s for chest and abdomen at 60 min post injection. All studies were reconstructed using time-of-flight and point-spread function information combined with an iterative algorithm (Ultra HD®, Siemens Healthcare; 2 iterations, 21 subsets, matrix 200; zoom 1.0; Gaussian filter of 5.0). In addition, a non-contrast breath-hold high-resolution CT (HRCT) (120 kV, mA modulated) of the chest was used to obtain contiguous 1.0-mm cross-sectional slices throughout the thorax.
PET/CT image analysis. Transaxial PET, CT and fused PET/CT 68Ga-pentixafor PET/CT images were analyzed on a dedicated workstation equipped with a commercial software package (syngo.via; Siemens Healthcare).
PET images were visually evaluated for the presence of elevated radiotracer uptake in lung parenchyma in areas of usual interstitial pneumonia (UIP) pattern on CT. Then, ^68Ga-Pentixafor uptake was quantified using a 3D Volume-of-Interest (VOI) technique with isocontour thresholding, yielding mean and peak standardized uptake values (SUVmean and SUVpeak). Separate measurements were performed in three subpleural regions in each lung lobe, and values for each region were then averaged for the subsequent statistical analysis. Tracer uptake in mediastinal and hilar lymph nodes was assessed in three thoracic lymph node stations using 3D VOIs with isocontour thresholding, and also averaged for the subsequent statistical analysis. In addition, tracer uptake (SUVmean) in spleen and bone marrow was […], recorded to evaluate systemic interactions.
Patients suffering from idiopathic pulmonary fibrosis were investigated for CXCR4 abundance by PET/CT using a CXCR4 tracer ^68Ga-Pentixafor as described.
The mean signal intensities (SUVmean) were determined in different regions, i.e. upper-, middle and lower fields. The volume of CXCR4-positive areas were determined and put into relation to the total volume of the respective areas. The extent of the fibrotic areas were judged in PET/CT and the SUVmean was determined for mediastinal lymph nodes, spleen and bone marrow.

Row | Compound | signal intensities for CXCR4 (cohort of 12 patients with idiopathic pulmonary fibrosis under treatment vs baseline) | strong increase of CXCR4 signal in pulmonary fibrotic areas (patients with idiopathic pulmonary fibrosis under treatment) | CXCR4 signal, single further patient (one of 5 analyzed patients under treatment) | CXCR4 signal intensity, single patient with familial idiopathic pulmonary fibrosis (one of 5 analyzed patients, unclear whether drug was taken on the day of investigation) | CXCR4 signal (PET/CT) | CXCR4 signal (PET/CT) (listed as Nitedanib) | patients showing a strong increase in CXCR4 signal intensity in the fibrotic areas in the lung (under treatment, these patients received 150 mg in the morning of the PET/CT day)
1 | Cc1ccc(=O)n(-c2ccccc2)c1 [Pirfenidone] | remained constant or even decreased | not observed |  |  |  |  | 
2 | COC(=O)c1ccc2c(c1)NC(=O)/C2=C(\Nc1ccc(N(C)C(=O)CN2CCN(C)CC2)cc1)c1ccccc1 [Nintedanib] |  |  | constant | decrease | increase | significant increase | 3 out of 5
